In brackets after ≈: the same amount, converted by molar mass. Read-outs that look alike come from different tables or passages of the source.
Key:
C. albicans [1] = assay: Single dose therapy of disseminated Candida albicans infection in mice; format: in vivo; conditions: free-hamycin from 5 microgram/mouse, versus control untreated group
Method: Hale-Stoner mice, six to eight weeks old (body weight, 20-25 g) were purchased from The University of Texas Science Park (Bastrop, TX). The mice (eight per group) were injected with 0.2 ml of C. albicans cell suspension containing 7×10^5 colony-forming units (cfu) via the tail vein. This concentration of cells was consistent in producing a disseminated infection after 48 hr, affecting primarily the liver, spleen, lungs and kidneys.
Mice were infected with C. albicans as described in Example 7. […] The survival of the animals in each group was recorded.

[2] = principal sterol of fungal versus human cell membranes; cited from earlier work
[3] = test system: Candida albicans (strain 336); assay: In vitro fungal inhibition (MIC), twofold serial dilution; format: cell-based
Method: The antifungal activity of free- verses liposomalhamycin against Candida albicans (strain 336) was determined in vitro. All strains of yeast were grown overnight at 37° C. on Sabouraud dextrose agar (SDA) plates. All molds were grown at 30° C. on SDA for 3 to 10 days prior to collection of spores. The inoculum was then processed for susceptibility testing as described earlier (Hopfer et al. (1984), Antimicrob. Agents Chemotherap., 25:387-389). A twofold serial dilutron method (Shadomy et al., In E. H. Lennette, et al., (eds.) Manual of Clinical Microbiology, 3rd ed. American Society for Microbiology, Washington, D.C. , pp. 647-653 (1980)) adapted to microtiter plates was used to determine the minimal inhibitory concentration (MIC) of the drugs.
The antifungal activity of free- versus liposomal-lucensomycin against Candida albicans (Strain 336) was determined in vitro. […] The MIC of free-lucensomycin was compared with that of liposomal-lucensomycin.

C. albicans [4] = assay: Antifungal activity (MIC) of free versus liposomal polyenes; format: cell-based
Method: The antifungal activity of free-verses liposomal-small polyenes was determined in vivo. These small polyenes included filipin, lagosin and natamycin.
The in vivo toxicity of liposomal small polyenes was evaluated in groups of 8 Hale-Stone mice (6-8 weeks old, body weight =20-25g; University of Texas Science Park, Bastrop, Tex.). Liposomal polyenes were prepared following the protocol set forth in Example 2. Each liposomal-small polyene formulated and evaluated in this study, listed in table 6, was administered to a group of normal and a group of infected mice. These infected mice were prepared by injection with 0.2 ml. of C. albicans according to the protocol set forth in Example 6.
The data on MIC of various liposomal-mepartricin preparations in normal and infected mice is presented for each of the small polyenes (filipin, lagasin natamysin and nystatin) and large polyenes in Table 6.

human RBCs = assay: In vitro toxicity: lysis of human red blood cells (hemoglobin release at 540 nm); conditions: 45 min
Text: Lysis of human red blood cells (RBCs) was quantitated by measuring the release of hemoglobin in the supernatants at 540 nm, as described previously (Mehta et al., (1984) Biochem. Biophys, Acta., 770:230-234). […] Release of hemoglobin by hypotonic lysis of the same number of human RBCs by water was taken as 100% positive control, while cells treated with PBS were taken as negative controls.
Lysis of human red blood cells (RBCs) was quantitated by measuring the release of hemoglobin in the supernatants at 540 nm, as described previously (Mehta et al., Biochem. Biophys, Acta., Vol. 770, pp. 230-234 (1984)). […] Release of hemoglobin by hypotonic lysis of the same number of human RBCs by water was taken as 100% positive control, while cells treated with PBS were taken as negative controls.
Lysis of human red blood cells (RBCs) was quantitated by measuring the release of hemoglobin in the supernatants at 540 nm, as described previously (Mehta et al., (1984) Biochem. Biophys. Acta., 770:230-234). […] Release of hemoglobin by hypotonic lysis of the same number of human RBCs by water was taken as 100% positive control, while cells treated with PBS were taken as negative controls.
Lysis of human red blood cells (RBCs) was quantitated by measuring the release of hemoglobin in the supernatants at 540 nm, as described previously (Mehta, et al. (1984) Biochem. Biophys. Acta, 770:230-234). […]

HTLV-III/LAV = conditions: monocyte-related cell line H9; Schaffner et al. (1986); cited from earlier work

hamycin
Survival of infected mice (in words) (C. albicans [1]): None of the doses tested improved the survival of infected mice | Avidity for ergosterol compared to cholesterol (in words) [2]: greater avidity for ergosterol | MIC ([3]; Candida albicans strain 336, in vitro): 0.25 microgram/ml

C[C@@H]1C/C=C/C=C/C=C/C=C/[C@H](O[C@@H]2O[C@H](C)[C@@H](O)[C@H](N)[C@@H]2O)C[C@@H]2O[C@](O)(C[C@@H](O)C[C@H]3O[C@@H]3/C=C/C(=O)O1)C[C@H](O)[C@H]2C(=O)O [Natamycin, natamycin]
MIC, free (C. albicans [4]): 4.0 µg/mL (≈ 6.01 µM)

CCCCC1C/C=C/C=C/C=C/C=C/C(O[C@@H]2O[C@H](C)[C@@H](O)[C@H](N)[C@@H]2O)CC2OC(O)(CC(O)CC3OC3/C=C/C(=O)O1)CC(O)C2C(=O)O (some centres unmarked) [Lucensomycin, lucensomycin]
Avidity for ergosterol compared to cholesterol (in words) [2]: greater avidity for ergosterol | Antifungal activity (in words) ([3]; in vitro, with or without cholesterol where stated): high antifungal activity | Lysis of human RBCs (human RBCs; 10 mg/ml, 37° C.): 70% | Lysis of human RBCs (human RBCs; 30 mg/ml, liposomes without cholesterol): approximately 100% | Maximum solubility (DMFA): 10000 µg/mL | Solubility in DMFA at 1 mg/ml (DMFA, 1 mg/ml): Yes | Maximum solubility (DMSO): 20000 µg/mL | Solubility in DMSO at 1 mg/ml (DMSO, 1 mg/ml): Yes | Maximum solubility (methanol): 500 µg/mL | Solubility in methanol at 1 mg/ml (methanol, 1 mg/ml): Partial | Solubility in water/saline at 1 mg/ml (water/saline, 1 mg/ml): nil

CCCCC[C@@H](O)[C@H]1C(=O)O[C@H](C)[C@@H](O)/C=C/C=C/C=C/C=C/C=C(\C)[C@@H](O)[C@H](O)[C@H](O)C[C@H](O)C[C@H](O)C[C@H](O)C[C@H](O)C[C@@H]1O [Lagosin, lagosin]
MIC, free (C. albicans [4]): 4.0 µg/mL (≈ 5.96 µM)

C[C@@H]1[C@H](O)[C@@H](C)/C=C/C=C/C=C/C=C/C=C/C=C/C=C/[C@H](O[C@@H]2O[C@H](C)[C@@H](O)[C@H](N)[C@@H]2O)C[C@@H]2O[C@](O)(C[C@@H](O)C[C@@H](O)[C@H](O)CC[C@@H](O)C[C@@H](O)CC(=O)O[C@H]1C)C[C@H](O)[C@H]2C(=O)O [Amphotericin B]
MIC, free (C. albicans [4]): 0.4 µg/mL (≈ 0.433 µM) | Replication of HTLV-III/LAV (in words) (HTLV-III/LAV): inhibited

CCCCC[C@@H](O)[C@H]1C(=O)O[C@H](C)[C@@H](O)/C=C/C=C/C=C/C=C/C=C(\C)[C@@H](O)C[C@H](O)C[C@H](O)C[C@H](O)C[C@H](O)C[C@H](O)C[C@@H]1O [Filipin, filipin]
MIC, free (C. albicans [4]): 8.0 to 16.0 µg/mL

COc1cc2c(c3oc(-c4ccccc4)cc(=O)c13)C=CC(C)(C)O2 [Candidin, candidin]
MIC, free (C. albicans [4]): 5.0 µg/mL (≈ 15 µM)

COC(=O)[C@H]1[C@@H]2C[C@@H](O[C@@H]3O[C@H](C)[C@@H](O)[C@H](N)[C@@H]3O)/C=C/C=C/C=C/C=C/C=C/C=C/C=C/[C@H](C)[C@@H](O)[C@@H](C)[C@H](C)OC(=O)C[C@H](O)C[C@H](O)CC[C@@H](O)[C@H](O)C[C@H](O)C[C@](O)(C[C@@H]1O)O2 [amphotericin B methyl ester ascorbate]
Replication of HTLV-III/LAV (in words) (HTLV-III/LAV): inhibited

C[C@@H]1[C@H](O)[C@@H](C)/C=C/C=C/CC/C=C/C=C/C=C/C=C/C(O[C@H]2O[C@H](C)[C@@H](O)[C@H](N)[C@@H]2O)CC2O[C@](O)(CC(O)C(O)CCC(O)CC(O)CC(O)CC(=O)O[C@H]1C)CC(O)C2C(=O)O (some centres unmarked) [Nystatin]
MIC, free (C. albicans [4]): 1.0 µg/mL (≈ 1.08 µM)

mepartricin
MIC, free (C. albicans [4]): 2.0 to 4.0 µg/mL

— patent US5032404A, “Lipsome-incorporation of polyenes” (priority 1989, dated 1991)
